# Measurements published in the supplement of paper PMC10307832.
# How the values were obtained:
# Assay in all cases: relative viability (nuclei count vs DMSO), 5 days (fraction); higher = more cells survive
# Doramapimod + OSI-027 = compound: Cc1ccc(-n2nc(C(C)(C)C)cc2NC(=O)Nc2ccc(OCCN3CCOCC3)c3ccccc23)cc1 [Doramapimod] + COc1cccc2cc(-c3nc([C@H]4CC[C@H](C(=O)O)CC4)n4ncnc(N)c34)[nH]c12 [OSI-027] (partner 0.5 µM)
# Outline: (§1)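 Lung cancer cell lines were seeded in 1536-well plates and dosed by pin tool the next day, with either a single drug or a fixed anchor-drug dose combined with five library-drug doses (not always all listed) spaced in √10 steps. Five days later, one step fixed the cells and stained their nuclei (final 0.05% Triton X-100, 1% formaldehyde, 1 ug/ml Hoechst), and nuclei were counted on 4× images. Relative viability is the nuclei count in treated wells divided by the count in vehicle wells, and each value is the median of duplicate plates.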
# IPA-3 + Dasatinib = compound: C1=CC=C2C(=C1)C=CC(=C2SSC3=C(C=CC4=CC=CC=C43)O)O [IPA-3] + Cc1nc(Nc2ncc(C(=O)Nc3c(C)cccc3Cl)s2)cc(N2CCN(CCO)CC2)n1 [Dasatinib] (partner 0.075 µM)
# Outline: as §1
# Doramapimod + Pemetrexed = compound: Cc1ccc(-n2nc(C(C)(C)C)cc2NC(=O)Nc2ccc(OCCN3CCOCC3)c3ccccc23)cc1 [Doramapimod] + Nc1nc2[nH]cc(CCc3ccc(C(=O)N[C@@H](CCC(=O)O)C(=O)O)cc3)c2c(=O)[nH]1 [Pemetrexed] (partner 0.2 µM)
# Outline: as §1
# IPA-3 + Alpelisib = compound: C1=CC=C2C(=C1)C=CC(=C2SSC3=C(C=CC4=CC=CC=C43)O)O [IPA-3] + Cc1nc(NC(=O)N2CCC[C@H]2C(N)=O)sc1-c1ccnc(C(C)(C)C(F)(F)F)c1 [Alpelisib] (partner 2 µM)
# Outline: as §1
Cell Line,relative viability (Doramapimod + OSI-027; first compound 0.02 µM),relative viability (Doramapimod + OSI-027; first compound 0.06325 µM),relative viability (Doramapimod + OSI-027; first compound 0.2 µM),relative viability (Doramapimod + OSI-027; first compound 0.6325 µM),relative viability (Doramapimod + OSI-027; first compound 2 µM),relative viability (IPA-3 + Dasatinib; first compound 0.2 µM),relative viability (IPA-3 + Dasatinib; first compound 0.6325 µM),relative viability (IPA-3 + Dasatinib; first compound 2 µM),relative viability (IPA-3 + Dasatinib; first compound 6.325 µM),relative viability (IPA-3 + Dasatinib; first compound 20 µM),relative viability (Doramapimod + Pemetrexed; first compound 0.02 µM),relative viability (Doramapimod + Pemetrexed; first compound 0.06325 µM),relative viability (Doramapimod + Pemetrexed; first compound 0.2 µM),relative viability (Doramapimod + Pemetrexed; first compound 0.6325 µM),relative viability (Doramapimod + Pemetrexed; first compound 2 µM),relative viability (IPA-3 + Alpelisib; first compound 0.2 µM),relative viability (IPA-3 + Alpelisib; first compound 0.6325 µM),relative viability (IPA-3 + Alpelisib; first compound 2 µM),relative viability (IPA-3 + Alpelisib; first compound 6.325 µM),relative viability (IPA-3 + Alpelisib; first compound 20 µM)
SW 900,0.547,0.579,0.858,0.599,0.523,0.74,0.703,0.667,0.781,0.543,0.513,0.513,0.478,0.502,0.479,–,–,–,–,–
NCI-H1623,0.47,0.475,0.478,0.457,0.397,0.509,0.579,0.561,0.546,0.617,–,–,–,–,–,–,–,–,–,–
NCI-H3122,0.956,0.853,0.938,1.04,1.01,0.804,0.751,0.847,0.919,0.926,0.197,0.207,0.187,0.207,0.196,0.797,0.798,0.804,0.856,0.776
NCI-H2347,0.509,–,0.474,0.452,0.423,0.357,0.305,0.336,0.41,0.336,0.42,0.443,0.444,0.436,0.376,1.12,0.941,0.928,1.08,1.01
HCC-44,0.563,0.607,0.625,0.463,0.433,–,–,–,–,–,0.673,0.649,0.712,0.605,0.614,0.788,0.715,0.843,0.683,0.775
HCC-78,0.372,0.362,0.365,0.358,0.299,0.43,0.359,0.462,0.439,0.427,0.879,0.883,0.918,0.967,0.887,0.327,0.406,0.244,0.347,0.51
COR-L23,0.688,0.892,0.84,0.806,0.621,0.679,0.506,0.503,0.46,0.125,0.222,0.203,0.212,0.19,0.2,0.872,0.769,0.861,0.589,0.587
NCI-H1993,0.573,0.566,0.59,0.495,0.522,0.567,1.77,0.63,0.364,0.585,0.627,0.517,0.504,0.658,0.558,0.742,0.6,0.616,0.66,0.594
NCI-H2405,0.654,0.596,0.606,0.74,0.598,0.221,0.204,0.204,0.163,0.211,1.13,1.13,1.02,1.18,1.01,0.815,0.771,0.753,0.853,0.829
NCI-H2126,0.79,0.689,0.631,0.71,0.58,0.709,0.58,0.68,0.633,0.545,0.69,0.667,0.605,0.667,0.642,0.762,0.73,0.699,0.727,0.928
NCI-H1944,0.365,0.451,0.352,0.492,0.286,0.213,0.198,0.244,0.314,0.234,0.573,0.623,0.503,0.595,0.572,0.836,0.832,0.958,0.942,0.983
NCI-H1648,0.249,0.254,0.257,0.26,0.268,–,–,–,–,–,0.745,0.87,0.584,0.705,0.632,–,–,–,–,–
NCI-H358,0.746,0.699,0.634,0.858,0.681,0.219,0.145,0.186,0.213,0.158,0.176,0.167,0.162,0.169,0.175,1.01,0.843,0.791,0.803,1.19
NCI-H727,0.497,0.556,0.688,0.472,0.57,0.295,0.423,0.328,0.385,0.389,–,–,–,–,–,0.629,0.559,0.593,0.676,0.621
ABC-1,0.613,0.451,0.433,0.655,0.51,0.666,0.477,0.536,0.708,0.58,–,–,–,–,–,1.23,1.11,–,0.881,1.07
NCI-H2342,0.622,0.657,0.614,0.776,0.542,0.308,0.346,0.343,0.375,0.305,0.733,0.759,0.789,0.788,0.784,–,–,–,–,–
NCI-H522,0.667,0.705,0.767,0.68,0.656,0.875,0.922,0.847,0.86,0.884,0.909,1.05,0.797,0.715,0.796,–,–,–,–,–
EBC-1,–,–,–,–,–,–,–,–,–,–,–,–,–,–,–,0.992,0.73,0.821,0.811,0.475
NCI-H1650,0.692,0.689,0.713,0.76,0.459,0.331,0.301,0.323,0.404,0.295,0.345,0.357,0.447,0.387,0.375,–,–,–,–,–
IA-LM,–,–,–,–,–,–,–,–,–,–,–,–,–,–,–,0.884,0.735,0.731,0.703,0.738
NCI-H1703,–,–,–,–,–,–,–,–,–,–,–,–,–,–,–,0.362,0.289,0.304,0.301,0.397
